Laboratory results reported in patent US5885987A, “Phenylene derivatives” (Kowa Co., Ltd., priority 1996, dated 1999).
Like-named read-outs stand apart in the source and are kept apart here.

How the values were obtained:
LTD4 receptor = biological target: T1, LTD4 receptor (Cavia porcellus, UniProt Q2NNR5); experiment: LTD4 receptor binding inhibition test ([^3 H]leukotriene D4, guinea pig pulmomembranous protein); conditions: for Kd: read-out: LTD4 receptor, dissociation constant KD; for inhibition at 10 µM: b: 10 μM; for inhibition at 10 µM / inhibition at 100 µM: read-out: LTD4 receptor (%), inhibition rate; for inhibition at 100 µM: a: 100 μM
T1 construct: guinea pig pulmomembranous protein; from tissue; host or cells: guinea pig lung membranes
T1 sequence (Q2NNR5 1-340): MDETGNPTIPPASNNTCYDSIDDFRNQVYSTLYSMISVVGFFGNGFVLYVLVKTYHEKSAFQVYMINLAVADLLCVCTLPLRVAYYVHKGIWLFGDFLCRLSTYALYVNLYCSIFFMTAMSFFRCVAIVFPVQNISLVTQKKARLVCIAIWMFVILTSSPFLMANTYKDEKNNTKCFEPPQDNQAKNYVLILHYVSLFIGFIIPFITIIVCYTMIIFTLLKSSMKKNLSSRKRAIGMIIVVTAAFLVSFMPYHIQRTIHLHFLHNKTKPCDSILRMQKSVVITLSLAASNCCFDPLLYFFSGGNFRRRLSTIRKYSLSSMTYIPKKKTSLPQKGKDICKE
Experimental: 2) LTD4 Receptor Binding Inhibition Test
An ice-cooled tris hydrochloride/sodium chloride buffer (10 mM/100 mM, pH 7.5) was added to terminate the reaction, followed by immediate filtration through a Wattman CF/C filter. The filter was washed twice with 20 ml aliguots of the ice-cooled buffer. The radioactivity of the residue was measured by a liquid scintillation counter. […] In a binding assay, 2 μM leukotriene D4 was used for the measurement of a nonspecific binding.

H1 receptor = biological target: T2, H1 receptor (Cavia porcellus, UniProt P31389); experiment: H1 receptor binding inhibition test ([^3 H]mepyramin, guinea pig cerebromembranous protein); conditions: for inhibition at 100 µM / inhibition at 10 µM: read-out: H1 receptor (%), inhibition rate; for Kd: read-out: H1 receptor, dissociation constant KD; for inhibition at 10 µM: b: 10 μM
T2 construct: guinea pig cerebromembranous protein; from tissue; host or cells: guinea pig cerebral (brain) membranes
T2 sequence (P31389 whole entry): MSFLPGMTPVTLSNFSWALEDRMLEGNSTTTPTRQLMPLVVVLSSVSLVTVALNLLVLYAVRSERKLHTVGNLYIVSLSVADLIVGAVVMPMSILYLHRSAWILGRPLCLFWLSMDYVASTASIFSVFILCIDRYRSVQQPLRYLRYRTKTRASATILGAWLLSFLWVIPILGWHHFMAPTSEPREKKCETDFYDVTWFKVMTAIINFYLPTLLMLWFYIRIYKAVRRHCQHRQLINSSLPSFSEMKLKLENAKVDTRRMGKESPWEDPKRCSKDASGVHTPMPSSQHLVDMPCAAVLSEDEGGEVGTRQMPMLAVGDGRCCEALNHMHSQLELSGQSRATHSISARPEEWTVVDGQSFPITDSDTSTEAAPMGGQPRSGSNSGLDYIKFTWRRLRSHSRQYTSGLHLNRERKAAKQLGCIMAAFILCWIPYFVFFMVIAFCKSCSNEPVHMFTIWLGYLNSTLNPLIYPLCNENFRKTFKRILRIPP
Experimental: 1) H1 Receptor Binding Inhibition Test
An ice-cooled phosphate buffer was added to terminate the reaction, followed by immediate filtration through a Wattman CF/C filter. The filter was washed twice with 20 ml aliquots of the ice-cooled buffer. The radioactivity of the residue was measured by a liquid scintillation counter. From a measurement value obtained without the addition of the test compound and measurements values obtained upon addition of the test compound at various concentrations, the dose-response of the inhibitory action of the test compound was measured and the 50% inhibitory concentration (IC50) was determined. Using the Cheng-Prusoff formula, a dissociation constant was calculated from the IC50. In a binding assay, 10^-4 M R(-)dimethindene was used for the measurement of a nonspecific binding.

[1] = 0.2 nM [^3 H]leukotriene D4, pH 7.5, 22° C., 30 minutes, calculated from IC50
[2] = 0.5 nM [^3 H]mepyramin, pH 7.5, 37° C., 30 minutes, calculated from IC50 with Cheng-Prusoff formula

Kd (LTD4 receptor) | inhibition at 100 µM (H1 receptor; a: 100 μM) | Compound | other results
331 nM | 33% | CC1(C)C(=O)Nc2c(OC(=O)c3ccc(OCc4ccc5ccccc5n4)cc3)cccc21 [Example 69, 3,3-Dimethyl-7-(4-(2-quinolinylmethoxy)benzoyloxyy]-2,3-dihydro-1H-indol-2-one] | 
196 nM |  | O=C1CCc2ccc(OCc3cccc(OCc4ncc5ccccc5n4)c3)cc2N1 [Example 34, 7-[3-(2-quinazolinylmethoxy)benzyloxy]-1,2,3,4-tetrahydroquinolin-2-one] | Kd (H1 receptor): 100 µM
60 nM |  | O=C1CCCc2cc(OCc3cccc(OCc4ncc5ccccc5n4)c3)ccc2N1 [Example 82, 7-[3-(2-quinazolinylmethoxy)benzyloxy]-2,3,4,5-tetrahydro-1H-benz[b]azepin-2-one] | inhibition at 10 µM (H1 receptor): 5%
523 nM | 44% | Cc1ccc(OCc2cccc(OCc3ccc4ccccc4n3)c2)c2cc(C#N)c(=O)[nH]c12 [Example 3, 3-Cyano-8-methyl-5-[3-(2-quinolinylmethoxy)benzyloxy]-1,2-dihydroquinolin-2-one] | 
 | 28% | Cc1ccc(OCc2ccc(OCc3ccc4ccccc4n3)cc2)c2c1NC(=O)CC2 [Example 21, 8-Methyl-5-[4-(2-quinolinylmethoxy)benzyloxy]-1,2,3,4-tetrahydroquinolin-2-one] | inhibition at 10 µM (LTD4 receptor): 33%
 | 28% | O=C1CSc2c(cccc2NC(=O)c2ccc(OCc3ccc4ccccc4n3)cc2)N1 [Example 71, 8-[4-(2-Quinolinylmethoxy)benzoylamino]-3,4-dihydro-2H-1,4-benzothiazin-3-one] | inhibition at 100 µM (LTD4 receptor): 0%
1510 nM |  | O=C1CSc2c(N=Cc3cccc(OCc4ccc5ccccc5n4)c3)cccc2N1 [Example 93, 8-[3-(2-quinolinylmethoxy)benzylidenamino]-3,4-dihydro-2H-1,4-benzothiazin-3-one] | inhibition at 10 µM (H1 receptor): 38%
30.6 nM | 40% | Cc1ccc(OC(=O)c2ccc(OCc3ccc4ccccc4n3)cc2)c2c1NC(=O)CC2 [Example 63, 8-Methyl-5-(4-(2-quinolinylmethoxy)benzoyloxy]-1,2,3,4-tetrahydroquinolin-2-one] | 
148 nM |  | O=C1CCCc2cc(OCc3cccc(OCc4ccc5ccccc5n4)c3)ccc2N1 [Example 9, 7-[3-(2-Quinolinylmethoxy)benzyloxy]-2,3,4,5-tetrahydrobenz[b]azepin-2-one] | Kd (H1 receptor): 47.6 µM
428 nM | 28% | CC1(C)C(=O)Nc2cc(OC(=O)c3ccc(OCc4ccc5ccccc5n4)cc3)ccc21 [Example 68, 3,3-Dimethyl-6-(4-(2-quinolinylmethoxy)benzoyloxy]-2,3-dihydro-1H-indol-2-one] | 
1240 nM | 45% | O=C1CCc2cc(OCc3ccc(OCc4ccc5ccccc5n4)cc3)ccc2N1 [Example 22] | 
 | 37% | CC1(C)C(=O)Nc2ccc(OC(=O)c3cccc(OCc4ccc5ccccc5n4)c3)cc21 [Example 59, 3,3-Dimethyl-5-[3-(2-quinolinylmethoxy)benzoyloxy]-2,3-dihydro-1H-indol-2-one] | inhibition at 100 µM (LTD4 receptor): 53%
 |  | 7-[3-(2-Quinolinylmethoxy)benzyloxy]-3,4-dihydro-2H-1,4-benzothiazin-3-one 1,1-dioxide [Example 77] | Kd (LTD4 receptor; [1]): 129 nM; H1 receptor (%), inhibition rate (H1 receptor; a: 100 μM): 30%
12.9 nM |  | O=C1CCCc2cc(OCc3cccc(OCc4ncc5ccccc5n4)c3)ccc21 [Example 90, 6-[3-(2-quinazolinylmethoxy)benzyloxy]-1-tetralone] | inhibition at 10 µM (H1 receptor): 8%
348 nM | 43% | O=C1CCc2cc(OC(=O)c3cccc(OCc4ccc5ccccc5n4)c3)ccc2N1 [Example 55, 6-[3-(2-Quinolinylmethoxy)benzoyloxy]-1,2,3,4-tetrahydroquinolin-2-one] | 
 |  | CCOCCn1c(COc2ccc(COc3ccc4c(c3)SCC(=O)N4)cc2)nc2ccccc21 [Example 46, 7-[(N-ethoxyethylbenzimidazol-2-yl-methoxy)benzyloxy]-3,4-dihydro-2H-1,4-benzothiazin-3-one] | Kd (LTD4 receptor; [1]): 6400 nM; Kd (H1 receptor; [2]): 5.95 µM

Kd (LTD4 receptor) | inhibition at 100 µM (H1 receptor; a: 100 μM) | Compound | other results
 | 43% | O=C1CCc2ccc(OC(=O)c3ccc(OCc4ccc5ccccc5n4)cc3)cc2N1 [Example 65, 7-(4-(2-Quinolinylmethoxy]benzoyloxy]-1,2,3,4-tetrahydroquinolin-2-one] | inhibition at 100 µM (LTD4 receptor): 13%
1100 nM |  | CC1(C)C(=O)Nc2ccc(OCc3ccc(OCc4ccc5ccccc5n4)cc3)cc21 [Example 18, 3,3-dimethyl-5-[4-(2-quinolinylmethoxy)benzyloxy]-2,3-dihydro-1H-indol-2-one] | Kd (H1 receptor): 78.7 µM
 | 28% | CC1(C)C(=O)Nc2c(OC(=O)c3cccc(OCc4ccc5ccccc5n4)c3)cccc21 [Example 61, 3,3-Dimethyl-7-[3-(2-quinolinylmethoxy)benzoyloxyl]2,3-dihydro-1H-indol-2-one] | inhibition at 10 µM (LTD4 receptor): 27%
1390 nM | 43% | O=C1CSc2cc(OCc3cccc(OCc4nc5ccccc5s4)c3)ccc2N1 [Example 40, 7-[3-(2-benzothiazolylmethoxy)benzyloxy)-3,4-dihydro-2H-1,4-benzothiazin-3-one] | 
115 nM |  | O=C1NCCCc2cc(OCc3ccc(OCc4ccc5ccccc5n4)cc3)ccc21 [Example 85, 7-[4-(2-quinolinylmethoxy)benzyloxy]-2,3,4,5-tetrahydro-1H-benz[c]azepin-1-one] | Kd (H1 receptor): 53.1 µM
204 nM | 28% | Cc1ccc(OCc2cccc(OCc3nc4ccccc4n3C)c2)c2c1NC(=O)C2(C)C [Example 37, 4-[3-(N-methylbenzimidazol-2-yl-methoxy)benzyloxy)-3,3,7-trimethyl-2,3-hydro-1H-indol-2-one] | 
 | 36% | O=C1CS(=O)(=O)c2cc(OCc3cccc(OCc4ccc5ccc(Cl)cc5n4)c3)ccc2N1 [Example 75] | LTD4 receptor (%), inhibition rate (LTD4 receptor; concentration not given): 0%
3100 nM | 34% | CCCCCCc1cc(OCc2ccc(OCc3ccc4ccccc4n3)cc2)cc2c1C(C)(C)C(=O)N2 [Example 29, 3,3-Dimethyl-4-(n-hexyl)-6-(4-(2-quinolinylmethoxy)benzyloxy]-2,3-dihydro-1H-indol-2-one] | 
 | 40% | O=C1CCc2cc(OC(=O)c3ccc(OCc4ccc5ccccc5n4)cc3)ccc2N1 [Example 64, 6-[4-(2-Quinolinylmethoxy)benzoyloxy]-1,2,3,4-tetrahydroquinolin-2-one] | inhibition at 100 µM (LTD4 receptor): 12%
16 nM | 38% | Cc1ccc(OC(=O)c2cccc(OCc3ccc4ccccc4n3)c2)c2cc(C#N)c(=O)[nH]c12 [Example 53, 3-cyano-8-methyl-5-[3-(2-quinolinylmethoxy)benzoyloxy]-1,2-dihydroquinolin-2-one] | 
26 nM |  | O=C1NCCCc2cc(OCc3cccc(OCc4ccc5ccccc5n4)c3)ccc21 [Example 84, 7-[3-(2-quinolinylmethoxy)benzyloxy]-2,3,4,5-tetrahydro-1H-benz[c]azepin-1-one] | Kd (H1 receptor): 66.4 µM
6300 nM |  | CCOCCn1c(COc2cccc(COc3ccc4c(c3)SCC(=O)N4)c2)nc2ccccc21 [Example 44, 7-[3-(N-ethoxylethylbenzimidazol-2-yl-methoxy)benzyloxy]-3,4-dihydro-2H-1,4-benzothiazin-3-one] | Kd (H1 receptor): 8.67 µM
 |  | 7-[3-(2-quinolinylmethoxy)benzyloxy]-2,3,4,5-tetrahydro-tetrazolo-[5,1-a][2]benzazepin [Example 87] | Kd (LTD4 receptor; [1]): 11.4 nM; Kd (H1 receptor; [2]): 67.2 µM
109 nM | 43% | O=C1CSc2cc(OCc3cccc(OCc4ccc5ccc(Cl)cc5n4)c3)ccc2N1 [Example 32, 7-[3-(7-chloro-2-quinolinylmethoxy)benzyloxy]-3,4-dihydro-2H-1,4-benzothiazin-3-one] | 
 |  | O=C1CCc2ccc(OCc3cccc(OCc4nc5ccccc5s4)c3)cc2N1 [Example 41, 7-[3-(2-benzothiazolylmethoxy)benzyloxy]-1,2,3,4-tetrahydroquinolin-2-one] | inhibition at 10 µM (LTD4 receptor): 34%; Kd (H1 receptor): 128 µM
315 nM |  | O=C1CSc2cc(NCc3cccc(OCc4ccc5ccccc5n4)c3)ccc2N1 [Example 94, 7-[3-(2-quinolinylmethoxy)benzylamino]-3,4-dihydro-2H-1,4-benzothiazin-3-one] | inhibition at 10 µM (H1 receptor): 37%
